Data as given in patent publication US12338220B2, “Antiviral pyrazolopiridinone compounds” (Novartis AG, priority 2019, dated 2025).
Like-named read-outs stand apart in the source and are kept apart here.

Key:
[1] = molecular target: CMV-polymerase (Human cytomegalovirus (strain AD169) (HHV-5) (Human herpesvirus 5), UniProt P08546); test: biochemical
[2] = molecular target: HSV-polymerase (Human herpesvirus 1 (strain 17) (HHV-1) (Human herpes simplex virus 1), UniProt P04293); test: biochemical
[3] = system: CMV; test: microbe, parasite or virus in culture; assay type: cell-based; settings: Human betaherpesvirus 5, 72 h, read-out: CMV-Luc Cellular EC50, NN-NHDF cells, MOI 1, 72 hrs
[4] = CMV-polymerase Biochemical IC50
[5] = read-out: CMV-polymerase Biochemical IC50

Compound	IC50 [1, 4] [nM]	IC50 [2] [nM]	IC50 [1, 5] [nM]	EC50 [3] [nM]
CC1Cc2c(C(=O)NCc3ccc(C#N)cc3)nn(C)c2C(=O)N1CC1(S(C)(=O)=O)CC1 (single isomer, unassigned) [Example 42, (R)- or (S)-N-(4-cyanobenzyl)-1,5-dimethyl-6-((1-(methylsulfonyl)cyclopropyl)methyl)-7-oxo-4,5,6,7-tetrahydro-1H-pyrazolo[3,4-c]pyridine-3-carboxamide]	149	2000		
Cn1nc(C(=O)NCc2ccc(C#N)cc2)c2c1C(=O)N(CC1(S(=O)(=O)C(C)(C)COC(F)CO)CC1)CC2 (single isomer, unassigned) [Example 81, (R)- or (S)-N-(4-cyanobenzyl)-6-((1-((1-(1-fluoro-2-hydroxyethoxy)-2-methylpropan-2-yl)sulfonyl)cyclopropyl)methyl)-1-methyl-7-oxo-4,5,6,7-tetrahydro-1H-pyrazolo[3,4-c]pyridine-3-carboxamide]	3	46		
Cn1nc(C(=O)NCc2ccc(C#N)cc2)c2c1C(=O)N(CC1(S(=O)(=O)C(C)(C)COC(F)CN)CC1)CC2 (single isomer, unassigned) [Example 82, (R)- or (S)-6-((1-((1-(2-amino-1-fluoroethoxy)-2-methylpropan-2-yl)sulfonyl)cyclopropyl)methyl)-N-(4-cyanobenzyl)-1-methyl-7-oxo-4,5,6,7-tetrahydro-1H-pyrazolo[3,4-c]pyridine-3-carboxamide]		82	2	
Cn1nc(C(=O)NCc2ccc(C#N)cc2)c2c1C(=O)N(CC1(S(=O)(=O)C(C)(C)COC(F)CN)CC1)CC2 (single isomer, unassigned) [Example 83, (R)- or (S)-6-((1-((1-(2-Amino-1-fluoroethoxy)-2-methylpropan-2-yl)sulfonyl)cyclopropyl)methyl)-N-(4-cyanobenzyl)-1-methyl-7-oxo-4,5,6,7-tetrahydro-1H-pyrazolo[3,4-c]pyridine-3-carboxamide]		71	1	
CC(O)COCC(C)(C)S(=O)(=O)C1(CN2CCc3c(C(=O)NCc4ccc(C#N)cc4)nn(C)c3C2=O)CC1 (single isomer, unassigned) [Example 91, (R)- or (S)-N-(4-Cyanobenzyl)-6-((1-((1-(2-hydroxypropoxy)-2-methylpropan-2-yl)sulfonyl)cyclopropyl)methyl)-1-methyl-7-oxo-4,5,6,7-tetrahydro-1H-pyrazolo[3,4-c]pyridine-3-carboxamide]	5	69		
CC1=NOC(C(C)(C)S(=O)(=O)C2(CN3CCc4c(C(=O)NCc5ccc(C#N)cc5)nn(C)c4C3=O)CC2)C1 (single isomer, unassigned) [Example 111, (R)- or (S)-N-(4-Cyanobenzyl)-1-methyl-6-((1-((2-(3-methyl-4,5-dihydroisoxazol-5-yl)propan-2-yl)sulfonyl)cyclopropyl)methyl)-7-oxo-4,5,6,7-tetrahydro-1H-pyrazolo[3,4-c]pyridine-3-carboxamide]		148	5	
Cn1nc(C(=O)NCc2ccc(C#N)cc2)c2c1C(=O)N(CC1(S(=O)(=O)C3(C(O)CO)CC3)CC1)CC2 (single isomer, unassigned) [Example 195, (R)- or (S)-N-(4-Cyanobenzyl)-6-((1-((1-(1,2-dihydroxyethyl)cyclopropyl)sulfonyl)cyclopropyl)methyl)-1-methyl-7-oxo-4,5,6,7-tetrahydro-1H-pyrazolo[3,4-c]pyridine-3-carboxamide]		23		
CC(C)(O)Cn1nc(C(=O)NCc2ccc(Cl)cc2)c2c1C(=O)N(CC1(S(C)(=O)=O)CC1)CC2 [Example 231, N-(4-Chlorobenzyl)-1-(2-hydroxy-2-methylpropyl)-6-((1-(methylsulfonyl)cyclopropyl)methyl)-7-oxo-4,5,6,7-tetrahydro-1H-pyrazolo[3,4-c]pyridine-3-carboxamide]			7	88
CC(C)(O)Cn1nc(C(=O)NCc2ccc(C#N)cc2)c2c1C(=O)N(CC1(S(C)(=O)=O)CC1)CC2 [Example 232, N-(4-Cyanobenzyl)-1-(2-hydroxy-2-methylpropyl)-6-((1-(methylsulfonyl)cyclopropyl)methyl)-7-oxo-4,5,6,7-tetrahydro-1H-pyrazolo[3,4-c]pyridine-3-carboxamide]			6	160
CCS(=O)(=O)C1(CN2CCc3c(C(=O)NCc4ccc(C#N)cc4)nn(CC(C)(C)O)c3C2=O)CC1 [Example 233, N-(4-Cyanobenzyl)-6-((1-(ethylsulfonyl)cyclopropyl)methyl)-1-(2-hydroxy-2-methylpropyl)-7-oxo-4,5,6,7-tetrahydro-1H-pyrazolo[3,4-c]pyridine-3-carboxamide]			2	96
CC(C)(O)Cn1nc(C(=O)NCc2ccc(C#N)cc2)c2c1C(=O)N(CC1(S(=O)(=O)C(C)(C)CO)CC1)CC2 [Example 235, N-(4-Cyanobenzyl)-6-((1-((1-hydroxy-2-methylpropan-2-yl)sulfonyl)cyclopropyl)methyl)-1-(2-hydroxy-2-methylpropyl)-7-oxo-4,5,6,7-tetrahydro-1H-pyrazolo[3,4-c]pyridine-3-carboxamide]			1	31
N#Cc1ccc(CNC(=O)c2nn(CCCO)c3c2CCN(CC2(S(=O)(=O)C4CC4)CC2)C3=O)cc1 [Example 236, N-(4-Cyanobenzyl)-6-((1-(cyclopropylsulfonyl)cyclopropyl)methyl)-1-(3-hydroxypropyl)-7-oxo-4,5,6,7-tetrahydro-1H-pyrazolo[3,4-c]pyridine-3-carboxamide]			4	77
CC1(S(=O)(=O)C2(CN3CCc4c(C(=O)NCc5ccc(C#N)cc5)nn(CCCO)c4C3=O)CC2)CC1 [Example 237, N-(4-Cyanobenzyl)-1-(3-hydroxypropyl)-6-((1-((1-methylcyclopropyl)sulfonyl)cyclopropyl)methyl)-7-oxo-4,5,6,7-tetrahydro-1H-pyrazolo[3,4-c]pyridine-3-carboxamide]			2	38
CC(C)(CO)S(=O)(=O)C1(CN2CCc3c(C(=O)NCc4ccc(C#N)cc4)nn(CCOCCBr)c3C2=O)CC1 [Example 238, 1-(2-(2-bromoethoxy)ethyl)-N-(4-cyanobenzyl)-6-((1-((1-hydroxy-2-methylpropan-2-yl)sulfonyl)cyclopropyl)methyl)-7-oxo-4,5,6,7-tetrahydro-1H-pyrazolo[3,4-c]pyridine-3-carboxamide]			1	16
CC1(C)COCCOCCn2nc(C(=O)NCc3ccc(C#N)cc3)c3c2C(=O)N(CC3)CC2(CC2)S1(=O)=O [Example 239, Ethylene glycol macrocycle N-(4-cyanobenzyl)carboxamide]	1			23
CC1(C)COCCOCCn2nc(C(=O)NCc3ccc(Cl)cc3)c3c2C(=O)N(CC3)CC2(CC2)S1(=O)=O [Example 240, Ethylene glycol macrocycle N-(4-chlorobenzyl)carboxamide]	1			43
CC1(C)C(=O)NCCOCCn2nc(C(=O)NCc3ccc(C#N)cc3)c3c2C(=O)N(CC3)CC2(CC2)S1(=O)=O [Example 241, Lactam macrocycle N-(4-cyanobenzyl)carboxamide]	13			467
CC1(C)CNCCOCCn2nc(C(=O)NCc3ccc(C#N)cc3)c3c2C(=O)N(CC3)CC2(CC2)S1(=O)=O [Example 242, amine macrocycle N-(4-cyanobenzyl)carboxamide]	6			101
